From ChEMBL document CHEMBL1134979, “A glucose-selective fluorescence sensor based on boronic acid-diol recognition” (Bioorg Med Chem Lett, 2002)

Assays:
[1] = Selectivity for Glucose to Fructose was determined by Fluorescence experiment
[2] = Fluorescence intensity change with respect to glucose binding (100 mM) was determined by Fluorescence experiment; Increased by 5.5 fold
[3] = Binding constant for complexation with Galactose by Fluorescence experiment
[4] = Binding constant for complexation with glucose by Fluorescence experiment
[5] = Binding constant for complexation with Fructose by Fluorescence experiment
[6] = Fluorescence intensity change with respect to glucose binding (100 mM) was determined by Fluorescence experiment; PBA is not fluorescent.
[7] = Fluorescence intensity change with respect to glucose binding (100 mM) was determined by Fluorescence experiment; Decreased by 0.4 fold
[8] = Fluorescence intensity change with respect to glucose binding (100 mM) was determined by Fluorescence experiment; Decreased by 0.5 fold
[9] = Binding constant for complexation with Fructose by Fluorescence experiment; Fluorescence was too small for an accurate Ka determination.
[10] = Selectivity for Glucose to Fructose was determined by Fluorescence experiment; Fluorescence intensity change upon binding with fructose was too small for an accurate Ka determination.
[11] = Fluorescence intensity change with respect to glucose binding (100 mM) was determined by Fluorescence experiment; Increased by 0.9 fold
[12] = Fluorescence intensity change with respect to glucose binding (100 mM) was determined by Fluorescence experiment; Increased by 7.0 fold
[13] = Fluorescence intensity change with respect to glucose binding (100 mM) was determined by Fluorescence experiment; Increased by 4.3 fold

## CN(Cc1ccccc1B(O)O)Cc1c2ccccc2c(CN(C)C(=O)c2ccccc2C(=O)N(C)Cc2c3ccccc3c(CN(C)Cc3ccccc3B(O)O)c3ccccc23)c2ccccc12
[1]
  Selectivity: 0.6
[2]
  Activity: Increased by 5.5 fold
[3]
  Ka: 33 M⁻¹
[4]
  Ka: 178 M⁻¹
[5]
  Ka: 283 M⁻¹

## OB(O)c1ccccc1
[1]
  Selectivity: 0.03
[3]
  Ka: 15 M⁻¹
[6]
  Activity: PBA is not fluorescent
[4]
  Ka: 5 M⁻¹
[5]
  Ka: 162 M⁻¹

## CN(Cc1ccccc1B(O)O)Cc1c2ccccc2c(CN(C)Cc2ccccc2B(O)O)c2ccccc12
[1]
  Selectivity: 13
[3]
  Ka: 158 M⁻¹
[4]
  Ka: 3980 M⁻¹
[5]
  Ka: 316 M⁻¹

## O=C1c2cccc3cc([N+](=O)[O-])cc(c23)C(=O)N1c1cccc(B(O)O)c1
[1]
  Selectivity: 0.08
[7]
  Activity: Decreased by 0.4 fold
[4]
  Ka: 38 M⁻¹
[5]
  Ka: 476 M⁻¹

## CC1=C2C[C@H]3Cc4c(CO)oc(-c5ccc(B(O)O)cc5)c4C3=C2Oc2cc(B(O)O)ccc21
[8]
  Activity: Decreased by 0.5 fold
[3]
  Ka: 100 M⁻¹
[9]
  Ka: Fluorescence was too small for an accurate Ka determination
[10]
  Selectivity: Fluorescence intensity change upon binding with fructose was too small for an accurate Ka determination
[4]
  Ka: 4000 M⁻¹

## OB(O)c1ccc[n+](Cc2c3ccccc3c(C[n+]3cccc(B(O)O)c3)c3ccccc23)c1
[11]
  Activity: Increased by 0.9 fold
[4]
  Ka: 2510 M⁻¹

## CN(Cc1ccccc1B(O)O)Cc1c2ccccc2c(CN(C)C(=O)Cc2ccccc2CC(=O)N(C)Cc2c3ccccc3c(CN(C)Cc3ccccc3B(O)O)c3ccccc23)c2ccccc12
[1]
  Selectivity: 43
[3]
  Ka: 30 M⁻¹
[12]
  Activity: Increased by 7.0 fold
[4]
  Ka: 1470 M⁻¹
[5]
  Ka: 34 M⁻¹

## CN(Cc1ccccc1B(O)O)Cc1c2ccccc2c(CN(C)C(=O)CCCCC(=O)N(C)Cc2c3ccccc3c(CN(C)Cc3ccccc3B(O)O)c3ccccc23)c2ccccc12
[1]
  Selectivity: 8
[3]
  Ka: 105 M⁻¹
[13]
  Activity: Increased by 4.3 fold
[4]
  Ka: 638 M⁻¹
[5]
  Ka: 77 M⁻¹
